According to patent publication US10918733B2, “Lipopeptide- and lipoprotein-conjugates and its use” (HELMHOLTZ-ZENTRUM FUER INFEKTIONSFORSCHUNG GMBH, priority 2009, dated 2021):

B1: LPS free Ova: EndoGrade Ovalbumin, Hyglos GmbH (protein, UniProt P01012 2-386, looked up)
Ovalbumin: GSIGAASMEFCFDVFKELKVHHANENIFYCPIAIMSALAMVYLGAKDSTRTQINKVVRFDKLPGFGDSIEAQCGTSVNVHSSLRDILNQITKPNDVYSFSLASRLYAEERYPILPEYLQCVKELYRGGLEPINFQTAADQARELINSWVESQTNGIIRNVLQPSSVDSQTAMVLVNAIVFKGLWEKAFKDEDTQAMPFRVTEQESKPVQMMYQIGLFRVASMASEKMKILELPFASGTMSMLVLLPDEVSGLEQLESIINFEKLTEWTSSNVMEERKIKVYLPRMKMEEKYNLTSVLMAMGITDVFSSSANLSGISSAESLKISQAVHAAHAEINEAGREVVGSAEAGVDAASVSEEFRADHPFLFCIKHIATNAVLFFGRCVSP
modifications: endotoxin-free
notes: EndoGrade Ovalbumin, Hyglos GmbH

What was measured:
[1] = test system: Ova-specific CD8+ T cells; experiment: Proliferation of CFSE-stained T cells co-cultured with treated DC: CD8+ T cells; assay type: cell-based, OT1-tg mice; conditions: DC incubated with 10 μg/mL for 24 h, co-culture 4 days
Protocol: (§1) T cell-mediated immune responses were investigated 96 h by measuring the proliferation of cells recovered from spleens after restimulation with BPPcysOva^mPEG. Non-Ag restimulated spleen cells were chosen as negative controls (FIG. 3). […] Taking into consideration that the BPPcysOva^mPEG has a promising effect on DC activation and maturation, next the capacity of these APC to stimulate the proliferation of antigen-specific CD8+ and CD4+ T cells was evaluated. Concentrations below 10^−8 M of BPPcysOva^mPEG were still able to induce an antigen specific proliferation of CD4+ T cells shown by the reduction of CFSE+ cells (FIGS. 4A-E).
(§2) FIG. 4: Proliferation of CD8+, CD4+ and regulatory T cells. DC were generated from bone marrow of C57BL/6 mice and incubated with 10 μg/mL of B) Ova C) Ova peptides, D) Ova in the presence of BPPcysMPEG and E) BPPcysOva^mPEG alone (A) Control) for 24 h. The following day, CD4+ T cells from spleens of OT2-tg animals or CD8+ T cells of OT1-tg animals were isolated. After staining with CFSE, CD8+, CD4+ T cells were co-cultured with adjuvant-treated DCs for 4 days. The decrease of CFSE-FITC expression due to cell division of CD8+ or CD4+ T cells were analysed by flow cytometric analysis. One representative experiment out of two is shown.

[2] = test system: Ova-specific CD4+CD25+Foxp3+ regulatory T cells; experiment: Proliferation of T cells co-cultured with treated DC: regulatory T cells; assay type: cell-based, OTII mice; conditions: DC incubated with 10 μg/mL for 24 h, co-culture 4 days
Protocol: as §1, §2

[3] = test system: spleen cells; experiment: Proliferation of spleen cells of immunized mice after in vitro restimulation with Ova, day 42 (Example 5); assay type: in vivo; conditions: i.n., restimulation with Ova
Protocol: Experimental protocol: Spleens were removed and pooled for analysis of cellular immune responses. Cells were grown in RPMI 1640 supplemented with 10% fetal calf serum, 100 U/ml of penicillin, 50 μg/ml of streptomycin, 5×10^−5 M 2-mercaptoethanol and 1 mM L-glutamine (GIBCO BRL, Karlsruhe, Germany) and maintained at 37° C. in a humidified 5% CO2 atmosphere. Lymph node and spleen cell suspensions were adjusted to 5×10^6 cells/ml in complete medium, cells were seeded with 100 μl per well in a flat-bottomed 96-well microtiter plate (Nunc) and plates were incubated for 4 days in the presence of different concentrations of Ova. Each concentration was tested in triplicates. During the final 18 h of culture, 1 μCi of [^3H]thymidine (Amersham International, Freiburg, Germany) was added to each well. Cells were then harvested on paper filters (Filtermat A; Wallac, Freiburg, Germany) by using a cell harvester (Inotech, Wohlen, Switzerland), and the amount of incorporated [^3H]thymidine into the DNA of proliferating cells was determined by a β-scintillation counter (Wallac 1450, Micro-Trilux). The results are expressed as the arithmetic mean of [^3H]thymidine uptake in cpm.
T cell-mediated immune responses were investigated at day 42 by measuring the proliferation of cells recovered from spleens after in vitro restimulation with Ova. […]

Molecule	stimulation of proliferation of Ova-specific CD8+ T cells by treated DC [1]	stimulation of proliferation of Ova-specific CD4+CD25+Foxp3+ regulatory T cells by treated DC [2]	proliferative response of spleen cells, i.n. immunization [3]
CD4 peptide: Ova CD4 epitope peptide alone (KISQAVHAAHAEINEAG; UniProt P01012 323-339, looked up, fragment) [reference compound]	weak stimulation	very efficiently	–
B1	–	–	failed to induce detectable cellular proliferation
